{"source": "patent US20100130359A1", "about": "(priority 2007, published 2010)", "key": {"[1]": {"test_system": "Phytophthora infestans", "assay_type": "in vivo, Phytophthora infestans on tomato plants", "conditions": "250 ppm active compound, sprayed one day before infection, assessed after 6 days; untreated plants 80% infected"}, "[2]": {"test_system": "Septoria tritici", "test": "Protective activity against Septoria leaf blotch of wheat caused by Septoria tritici", "assay_type": "in vivo, Septoria tritici on wheat seedlings", "conditions": "250 ppm active compound, sprayed six days after inoculation, assessed after 14 days; untreated plants 90% infected", "protocol": "The active compounds were prepared as a stock solution comprising 25 mg of active compound which was made up to 10 ml using a mixture of acetone and/or DMSO and the emulsifier Uniperol® EL (wetting agent having emulsifying and dispersing action based on ethoxylated alkylphenols) in a volume ratio of solvent/emulsifier of 99/1. The mixture was then made up to 100 ml with water. This stock solution was diluted with the solvent/emulsifier/water mixture described to the concentration of active compounds stated below. Alternatively, the active compounds were used as a commercial finished formulation and diluted with water to the stated active compound concentration.\nLeaves of potted wheat seedlings were inoculated with a spore suspension of the leaf blotch disease Septoria tritici. The test plants were then placed in a greenhouse at temperatures between 20 and 22° C. and a relative atmospheric humidity of close to 100% and then at temperatures between 16 and 18° C. and an atmospheric humidity of about 70% for 4 days. Six days after the inoculation, the plants were sprayed to runoff point with an aqueous active compound solution having the concentration stated below. After the spray coating had dried on, the plants were returned. After 14 days, the extent of the development of the disease was determined visually in % infection of the entire leaf area."}}, "data": [{"smiles": "Cc1nnc(Cl)c(-c2c(F)cc(OCCCN(C)C)cc2F)c1-c1ccc(Cl)cc1", "note": "[Compound I-1, (3-{-4-[3-chloro-5-(4-chlorophenyl)-6-methylpyridazin-4-yl]-3,5-difluorophenoxy}propyl)dimethylamine]", "values": [{"measurement": "infection of treated tomato plants (late blight), determined visually", "setting": "[1]", "value": "no infection"}, {"measurement": "infection of the entire leaf area of treated wheat plants, determined visually", "setting": "[2]", "value": 10, "unit": "%"}]}]}
